How the values were obtained:
STAT3 = target: T1, STAT3 (Homo sapiens, UniProt P40763); experiment: STAT3 Fluorescence Polarization (FP) Assay; assay type: binding; details: recombinant STAT3 25 nM; probe 5-FAM-GpYLPQTV-NH2 2 nM; 45 min, room temperature; read-out: STAT3 FP IC50
T1 construct: Recombinant STAT3 protein (STAT3(G127-1722))
Description: STAT3 Fluorescence Polarization (FP) Assay
An FP assay was developed to determine IC50 values for test substances. Recombinant STAT3 protein (STAT3(G127-1722)) at 25 nM was combined with a fluorescently labeled, phosphotyrosine peptide probe (5-FAM-GpYLPQTV-NH2) at 2 nM in FP buffer (10 mM HEPES pH 7.4, 50 mM NaCl, 1 mM EDTA, 0.05% Tween 20.2 mM DTT). 50 μL of STAT3-probe mixture was added to serial diluted compounds in black, 96-well plates (Greiner BioOne 655076) to a final concentration of 1% DMSO. Reaction components were mixed, and FP was measured after 45-minute incubation at room temperature using a Tecan Spark multimode plate reader. FP signal (mP) was plotted against the log concentration of the test substances and IC50 values were calculated by nonlinear regression analysis using GraphPad Prism software. For STAT3 FP assay. A=≤100 nM; B=>100-1000 nM; C=>1-10 μM; and D=>10 μM.

pSTAT6 = target: T2, pSTAT6 (Homo sapiens, UniProt P42226); experiment: MSD-pSTAT-PBMC Assay, pSTAT6 (IL-4 stimulated PBMC); assay type: cell-based; details: compound 3 hrs, then 1 ng/mL IL-4 for 10 min, pY641-STAT6, read-out: pSTAT6 IC50
T2 construct: pY641-STAT6 MSD read-out
T2 sequence (P42226 1-847): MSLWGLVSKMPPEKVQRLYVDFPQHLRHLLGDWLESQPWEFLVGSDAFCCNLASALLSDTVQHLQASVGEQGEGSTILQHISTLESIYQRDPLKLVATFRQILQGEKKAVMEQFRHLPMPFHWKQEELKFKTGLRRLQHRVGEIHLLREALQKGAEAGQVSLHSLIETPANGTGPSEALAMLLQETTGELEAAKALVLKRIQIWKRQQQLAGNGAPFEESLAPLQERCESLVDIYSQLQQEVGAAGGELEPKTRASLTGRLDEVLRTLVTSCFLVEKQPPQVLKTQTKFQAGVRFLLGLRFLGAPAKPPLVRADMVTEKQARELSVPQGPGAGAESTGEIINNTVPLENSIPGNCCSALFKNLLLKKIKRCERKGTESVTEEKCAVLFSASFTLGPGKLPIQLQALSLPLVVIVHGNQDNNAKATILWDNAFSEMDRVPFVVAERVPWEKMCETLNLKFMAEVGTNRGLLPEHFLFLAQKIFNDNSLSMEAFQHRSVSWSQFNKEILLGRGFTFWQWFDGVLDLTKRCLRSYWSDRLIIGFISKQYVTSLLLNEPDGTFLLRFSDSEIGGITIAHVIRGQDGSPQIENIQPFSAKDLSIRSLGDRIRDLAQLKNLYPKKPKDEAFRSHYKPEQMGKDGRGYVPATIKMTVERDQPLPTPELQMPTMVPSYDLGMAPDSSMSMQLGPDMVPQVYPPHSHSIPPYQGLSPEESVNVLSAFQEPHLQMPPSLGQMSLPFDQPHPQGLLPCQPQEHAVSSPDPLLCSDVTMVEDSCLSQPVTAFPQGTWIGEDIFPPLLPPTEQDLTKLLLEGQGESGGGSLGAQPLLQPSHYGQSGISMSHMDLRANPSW
Source text: Cryopreserved Peripheral Blood Mononuclear Cells (PBMC) are from AllCells. Recombinant Human IL-4 and IL-6 are from Peprotech. Mouse monoclonal anti-STAT3 antibody, rabbit monoclonal anti-pY705-STAT3 antibody, rabbit monoclonal Anti-pY641-STAT6 antibody, and lysis buffer are from Cell Signaling Technology (CST). Mouse monoclonal anti-STAT6 antibody is from BioLegend. Assay plates, blocker, and anti-rabbit secondary antibody are from Meso Scale Discovery (MSD).
Cryopreserved PBMCs were thawed out and allowed to recover overnight in IMDM+10% heat-inactivated FBS prior to plating 50,000 (STAT3) or 25,000 (STAT6) cells per well in 96-well U-bottom tissue culture plates. Cells were treated with compound for 3 hrs. then stimulated with 10 ng/mL IL-6 (STAT3) or 1 ng/mL IL-4 (STAT6) for 10 min. Cells were then spun down and washed with ice-cold PBS prior to lysing the cell pellet with 1× lysis buffer (CST) with 1×HALT protease and phosphatase inhibitor cocktail (Thermo). Lysates were transferred to and incubated overnight at 4° C. with shaking in QuickPlex 96-well high bind assay plates (MSD) pre-coated overnight with 30 μL per well of 0.6 μg/mL mouse monoclonal anti-STAT3 antibody (STAT3) or 2 μg/mL mouse monoclonal anti-STAT6 antibody (STAT6) in 1×PBS, and pre-blocked for 1 hour with 3% Blocker-A (MSD). Captured protein in the assay plates were then washed and probed with 25 μL per well of 0.25 μg/ml rabbit monoclonal anti-pY705-STAT3 antibody (STAT3) or 0.18 μg/ml rabbit monoclonal Anti-pY641-STAT6 antibody (STAT6) in 1% Blocker-A for 1 hour at room temperature with shaking, then washed and probed with 25 ul per well of 1 ug/ml Sulfo-TAG Labeled Goat Anti-Rabbit Antibody (MSD) in 1% Blocker-A for 1 hour at room temperature with shaking. Assay plates were then washed and 150 μL of 1× Read Buffer-T (MSD) was added to each well prior to reading on an SQ120 MSD Plate Reader. Assay signal from each sample was subtracted by the signal from unstimulated control wells and normalized to DMSO control wells. IC50 values were calculated using Graph Pad Prism Dose-Response Nonlinear Regression with variable slope. For both pSTAT3 and pSTAT6 A=≤100 nM; B=>100-1000 nM; C=>1000-3000 nM; and D=>3 μM.

STAT6 = target: T3, STAT6 (Homo sapiens, UniProt P42226); experiment: STAT6 Fluorescence Polarization (FP) Assay; assay type: binding; details: recombinant STAT6(W123-T658) 250 nM; probe 5-FAM-Ap[…]-NH2 2 nM; 45 min, room temperature; read-out: STAT6 FP IC50
T3 construct: Recombinant STAT6 protein (STAT6(W123-T658))
T3 sequence (P42226 123-658): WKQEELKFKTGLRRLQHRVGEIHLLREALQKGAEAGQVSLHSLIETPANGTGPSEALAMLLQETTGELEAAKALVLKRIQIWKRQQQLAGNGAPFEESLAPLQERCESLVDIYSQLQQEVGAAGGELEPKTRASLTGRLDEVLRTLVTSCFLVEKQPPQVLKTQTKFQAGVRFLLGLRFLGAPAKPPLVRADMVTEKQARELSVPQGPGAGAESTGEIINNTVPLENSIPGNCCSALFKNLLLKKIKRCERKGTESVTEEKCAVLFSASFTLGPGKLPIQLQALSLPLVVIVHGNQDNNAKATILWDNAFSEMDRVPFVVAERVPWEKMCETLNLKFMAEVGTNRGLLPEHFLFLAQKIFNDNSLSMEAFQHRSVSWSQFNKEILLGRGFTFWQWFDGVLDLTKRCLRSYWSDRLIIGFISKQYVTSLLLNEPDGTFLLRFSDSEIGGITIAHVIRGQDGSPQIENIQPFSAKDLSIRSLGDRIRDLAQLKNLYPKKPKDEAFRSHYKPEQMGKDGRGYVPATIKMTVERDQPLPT
Description: STAT6 Fluorescence Polarization (FP) Assay
An FP assay was developed to determine IC50 values for test substances. Recombinant STAT6 protein (STAT6(W123-T658)) at 250 nM was combined with a fluorescently labeled, phosphotyrosine peptide probe (5-FAM-Ap[…]-NH2) at 2 nM in FP buffer (10 mM HEPES pH 7.4, 50 mM NaCl, 1 mM EDTA, 0.05% Tween 20, 2 mM DTT), 50 μL of STAT6-probe mixture was added to serial diluted compounds in black, 96-well plates (Greiner BioOne 655076) to a final concentration of 1% DMSO. Reaction components were mixed, and FP was measured after 45-minute incubation at room temperature using a Tecan Spark multimode plate reader. FP signal (mP) was plotted against the log concentration of the test substances and IC50 values were calculated by nonlinear regression analysis using GraphPad Prism software. For STAT6 FP assay. A=≤300 nM; B=>300-3000 nM; C=>3-30 μM; and D=>30 μM.

T1 sequence (P40763 127-722 limits assumed): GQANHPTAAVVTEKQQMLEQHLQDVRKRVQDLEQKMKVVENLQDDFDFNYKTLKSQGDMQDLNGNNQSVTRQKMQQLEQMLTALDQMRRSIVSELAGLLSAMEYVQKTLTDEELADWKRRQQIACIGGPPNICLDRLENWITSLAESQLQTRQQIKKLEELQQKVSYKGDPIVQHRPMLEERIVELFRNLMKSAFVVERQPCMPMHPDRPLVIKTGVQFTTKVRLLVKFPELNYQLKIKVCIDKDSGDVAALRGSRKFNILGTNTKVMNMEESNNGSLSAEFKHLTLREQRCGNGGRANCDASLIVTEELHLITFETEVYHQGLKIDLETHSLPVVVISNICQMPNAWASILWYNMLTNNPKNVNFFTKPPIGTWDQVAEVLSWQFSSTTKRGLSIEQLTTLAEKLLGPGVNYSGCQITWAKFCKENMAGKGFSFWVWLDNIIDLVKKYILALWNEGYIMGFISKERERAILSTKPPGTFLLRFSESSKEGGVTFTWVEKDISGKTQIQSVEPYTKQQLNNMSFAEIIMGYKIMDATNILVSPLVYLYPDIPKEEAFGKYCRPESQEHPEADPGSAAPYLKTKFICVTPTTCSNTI

IC50 (STAT3) [µM]	IC50 (pSTAT6) [µM]	IC50 (STAT6) [µM]	SMILES
1 to 10	> 3	< 0.3	Cc1ccc2onc(C(=O)N3CC[C@H]4CC[C@@H](C(=O)N(C)CCC#Cc5cccc6c5CN(C5CCC(=O)NC5=O)C6=O)N4C(=O)[C@@H](NC(=O)c4ccc5ccc(C(F)(F)P(=O)(O)O)cc5c4)C3)c2c1 (stereo partly drawn) [Compound 28, ((7-(((5S,8S,10aR)-8-((4-(2-(2,6-dioxopiperidin-3-yl)-1-oxoisoindolin-4-yl)but-3-yn-1-yl)(methyl)carbamoyl)-3-(5-methylbenzo[d]isoxazole-3-carbonyl)-6-oxodecahydropyrrolo[1,2-a][1,5]diazocin-5-yl)carbamoyl)naphthalen-2-yl)difluoromethyl)phosphonic acid]
1 to 10	> 3	< 0.3	Cc1ccc2onc(C(=O)N3CC[C@H]4CC[C@@H](C(=O)N(C)CCCC(=O)N[C@H](C(=O)N5C[C@H](O)C[C@H]5C(=O)N[C@@H](C)c5ccc(-c6scnc6C)cc5)C(C)(C)C)N4C(=O)[C@@H](NC(=O)c4ccc5ccc(C(F)(F)P(=O)(O)O)cc5c4)C3)c2c1 [Compound 29, (difluoro(7-(((5S,8S,10aR)-8-((4-(((S)-1-((2S,4R)-4-hydroxy-2-(((S)-1-(4-(4-methylthiazol-5-yl)phenyl)ethyl)carbamoyl)pyrrolidin-1-yl)-3,3-dimethyl-1-oxobutan-2-yl)amino)-4-oxobutyl)(methyl)carbamoyl)-3-(5-methylbenzo[d]isoxazole-3-carbonyl)-6-oxodecahydropyrrolo[1,2-a][1,5]diazocin-5-yl)carbamoyl)naphthalen-2-yl)methyl)phosphonic acid]
1 to 10	> 3	< 0.3	Cc1ccc2onc(C(=O)N3CC[C@H]4CC[C@@H](C(=O)N(C)CCCCOc5ccc(C6CCC(=O)NC6=O)cc5)N4C(=O)[C@@H](NC(=O)c4ccc5ccc(C(F)(F)P(=O)(O)O)cc5c4)C3)c2c1 (stereo partly drawn) [Compound 30, ((7-(((5S,8S,10aR)-8-((4-(4-(2,6-dioxopiperidin-3-yl)phenoxy)butyl)(methyl)carbamoyl)-3-(5-methylbenzo[d]isoxazole-3-carbonyl)-6-oxodecahydropyrrolo[1,2-a][1,5]diazocin-5-yl)carbamoyl)naphthalen-2-yl)difluoromethyl)phosphonic acid]
1 to 10	> 3	0.3 to 3	Cc1ccc2onc(C(=O)N3CC[C@H]4CC[C@@H](C(=O)NCCOc5cc(C(C(=O)N6C[C@H](O)C[C@H]6C(=O)N[C@H](C)c6ccc(-c7scnc7C)cc6)C(C)C)on5)N4C(=O)[C@@H](NC(=O)c4ccc5ccc(C(F)(F)P(=O)(O)O)cc5c4)C3)c2c1 (stereo partly drawn) [Compound 32, (difluoro(7-(((5S,8S,10aR)-8-((2-((5-(1-((2S,4R)-4-hydroxy-2-(((R)-1-(4-(4-methylthiazol-5-yl)phenyl)ethyl)carbamoyl)pyrrolidin-1-yl)-3-methyl-1-oxobutan-2-yl)isoxazol-3-yl)oxy)ethyl)carbamoyl)-3-(5-methylbenzo[d]isoxazole-3-carbonyl)-6-oxodecahydropyrrolo[1,2-a][1,5]diazocin-5-yl)carbamoyl)naphthalen-2-yl)methyl)phosphonic acid]
1 to 10	> 3	< 0.3	Cc1ccc2onc(C(=O)N3CC[C@H]4CC[C@@H](C(=O)N5CCN(c6cc(C(C(=O)N7C[C@H](O)C[C@H]7C(=O)N[C@H](C)c7ccc(-c8scnc8C)cc7)C(C)C)on6)CC5)N4C(=O)[C@@H](NC(=O)c4ccc5ccc(C(F)(F)P(=O)(O)O)cc5c4)C3)c2c1 (stereo partly drawn) [Compound 33, (difluoro(7-(((5S,8S,10aR)-8-(4-(5-(1-((2S,4R)-4-hydroxy-2-(((R)-1-(4-(4-methylthiazol-5-yl)phenyl)ethyl)carbamoyl)pyrrolidin-1-yl)-3-methyl-1-oxobutan-2-yl)isoxazol-3-yl)piperazine-1-carbonyl)-3-(5-methylbenzo[d]isoxazole-3-carbonyl)-6-oxodecahydropyrrolo[1,2-a][1,5]diazocin-5-yl)carbamoyl)naphthalen-2-yl)methyl)phosphonic acid]

— US20260308186A1, “STAT DEGRADERS AND USES THEREOF” (Recludix Pharma, Inc., priority 2023, published 2026)
